Source: patent publication US9315459B2, “Crystalline forms of 4-[2-(4-methylphenylsulfanyl)-phenyl] piperidine” (priority 2006, dated 2016)

Key:
[1] = target: T1, human 5-HT2A receptors (Homo sapiens, UniProt P28223); experiment: Functional assay, 5-HT evoked release of Ca2+ in CHO cells expressing human 5-HT2A receptors (FLIPR); type: cell-based; conditions: mammalian cells expressing human 5-HT2A
T1 construct: expressed in transfected cells; host or cells: CHO cells (functional assay)

[2] = system: extracellular levels of acetylcholine; experiment: Microdialysis, extracellular acetylcholine in prefrontal cortex of freely-moving rats (Example 2F); type: in vivo, rat; conditions: Wistar rats, s.c., FIG. 24
Description: The experiment was designed to evaluate the effects of compounds of the present invention on extracellular levels of acetylcholine in the prefrontal cortex of freely-moving rats.
Male Wistar rats (280-350 g; Harlan, Zeist, The Netherlands) were used for the experiments. Rats were individually housed in plastic cages (30×30×40 cm) and had ad libitum access to food and water.
Rats were anesthetized using isoflurane (2%, 400 mL/min N2O, 400 ml/min O2). Lidocain (10% m/v) was used for local anesthesia. […]
Experiments were carried out 24-48 hours after surgery. […] Samples were collected by an automated fraction collector (CMA 142), and stored at −80° C. until analyzed. […]
Concentrations of acetylcholine were determined by HPLC with tandem mass spectrometry (MS/MS) detection. […]
The LC/MS analyses were performed using an API 4000 MS/MS system consisting of an API 4000 MS/MS detector and a Turbo Ion Spray interface (both from Applied Biosystems, the Netherlands). […] Data were calibrated and quantitated using the Analyst™ data system (Applied Biosystem, version 1.2).
Two consecutive microdialysis samples with less then 50% variation were taken as baseline levels and set at 100%. Changes in acetylcholine concentration were expressed as percent of baseline within the same subject.

[3] = system: extracellular levels of acetylcholine; experiment: Microdialysis, extracellular acetylcholine in prefrontal cortex and ventral hippocampus of freely-moving rats (Example 2G); type: in vivo, rat; conditions: Sprague-Dawley rats, FIG. 25a+b
Description: The experiment was designed to evaluate the effects of compounds of the present invention on extracellular levels of acetylcholine in the prefrontal cortex and ventral hippocampus of freely-moving rats.
Male Sprague-Dawley rats, initially weighing 275-300 g, were used. The animals were housed under a 12-hr light/dark cycle under controlled conditions for regular in-door temperature (21±2° C.) and humidity (55±5%) with food and tap water available ad libitum.
Rats were anaesthetised with hypnorm/dormicum (2 ml/kg) and intracerebral guide cannulas (CMA/12) were stereotaxically implanted into the hippocampus, aiming to position the dialysis probe tip in the ventral hippocampus (co-ordinates: 5.6 mm posterior to bregma, lateral −5.0 mm, 7.0 mm ventral to dura or in the frontal cortex (co-ordinates: 3.2 mm anterior to bregma; lateral, 0.8 mm; 4.0 mm ventral to dura). Anchor screws and acrylic cement were used for fixation of the guide cannulas. The body temperature of the animals was monitored by rectal probe and maintained at 37° C. The rats were allowed to recover from surgery for 2 days, housed singly in cages. On the day of the experiment a microdialysis probe (CMA/12, 0.5 mm diameter, 3 mm length) was inserted through the guide cannula.
The probes were connected via a dual channel swivel to a microinjection pump. […]

T1 sequence (P28223 whole entry): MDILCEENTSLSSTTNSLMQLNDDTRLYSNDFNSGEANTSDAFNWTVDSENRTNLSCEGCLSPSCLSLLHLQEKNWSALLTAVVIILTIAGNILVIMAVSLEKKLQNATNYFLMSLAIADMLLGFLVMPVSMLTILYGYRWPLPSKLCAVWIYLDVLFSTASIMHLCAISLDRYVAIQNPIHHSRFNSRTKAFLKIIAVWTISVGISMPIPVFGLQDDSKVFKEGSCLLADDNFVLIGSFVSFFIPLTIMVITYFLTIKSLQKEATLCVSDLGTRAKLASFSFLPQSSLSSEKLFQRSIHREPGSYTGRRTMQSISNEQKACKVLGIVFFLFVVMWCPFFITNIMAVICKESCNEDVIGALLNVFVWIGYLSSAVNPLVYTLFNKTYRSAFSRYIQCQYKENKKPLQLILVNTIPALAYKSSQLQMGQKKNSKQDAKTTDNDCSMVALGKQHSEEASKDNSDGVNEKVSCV

Mode of action at human 5-HT2A receptors [1]: competitive antagonistic properties
Compound: Cc1ccc(Sc2ccccc2C2CCNCC2)cc1 [compound I, 4-[2-(4-methylphenylsulfanyl)-phenyl]piperidine]
Extracellular level of acetylcholine [2]: increase
Extracellular level of acetylcholine [3]: increase
